Source: patent US20040044000A1, “Isoquinoline derivatives as matrix metalloproteinase inhibitors” (priority 2002, published 2004)
pIC50: −log10 of the molar value. Like-named read-outs stand apart in the source and are kept apart here.

Tests used:
Type in all cases: biochemical
[1] = biological target: T1, MMP-17 catalytic domain (MMP-17CD) (Homo sapiens, UniProt Q9ULZ9); assay: Inhibition of MMP-17 catalytic domain (thiopeptolide substrate hydrolysis)
T1 construct: MMP-3 catalytic domain, MMP-12 catalytic domain, MMP-14 catalytic domain, and MMP-17 catalytic domain
T1 sequence (Q9ULZ9 126-295 limits assumed): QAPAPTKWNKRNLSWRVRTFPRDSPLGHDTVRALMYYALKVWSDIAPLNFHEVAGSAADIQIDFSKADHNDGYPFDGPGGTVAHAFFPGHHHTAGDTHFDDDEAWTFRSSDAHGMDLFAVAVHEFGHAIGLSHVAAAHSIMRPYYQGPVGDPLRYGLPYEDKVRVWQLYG
Description: (§1) The assays measure the amount by which a test compound reduces the hydrolysis of a thiopeptolide substrate catalyzed by a matrix metalloproteinase enzyme. Such assays are described in detail by Ye et al., in Biochemistry, 1992;31(45):11231-11235, which is incorporated herein by reference. One such assay is described below in Biological Method 1.
(§2) Thiopeptolide substrates show virtually no decomposition or hydrolysis at or below neutral pH in the absence of a matrix metalloproteinase enzyme. A typical thiopeptolide substrate commonly utilized for assays is Ac-Pro-Leu-Gly-thioester-Leu-Leu-Gly-OEt. A 100 μL assay mixture will contain 50 mM of N-2-hydroxyethylpiperazine-N′-2-ethanesulfonic acid buffer (“HEPES,” pH 7.0), 10 mM CaCl2, 100 μM thiopeptolide substrate, and 1 mM 5,5′-dithio-bis-(2-nitro-benzoic acid) (DTNB). The thiopeptolide substrate concentration may be varied, for example from 10 to 800 μM to obtain Km and Kcat values. The change in absorbance at 405 nm is monitored on a Thermo Max microplate reader (molecular Devices, Menlo Park, Calif.) at room temperature (22° C.). The calculation of the amount of hydrolysis of the thiopeptolide substrate is based on E412=13600 M^−1 cm^−1 for the DTNB-derived product 3-carboxy-4-nitrothiophenoxide. Assays are carried out with and without matrix metalloproteinase inhibitor compounds, and the amount of hydrolysis is compared for a determination of inhibitory activity of the test compounds.
(§3) Test compounds were evaluated at various concentrations in order to determine their respective IC50 values, the micromolar concentration of compound required to cause a 50% inhibition of catalytic activity of the respective enzyme.

[2] = biological target: T2, MMP-13 catalytic domain (MMP-13CD) (Homo sapiens, UniProt P45452); assay: Inhibition of MMP-13 catalytic domain (thiopeptolide substrate hydrolysis); conditions: read-out: MMP-13CD IC50
T2 construct: use the catalytic domain of the MMP-13 enzyme, namely matrix metalloproteinase-13 catalytic domain (“MMP-13CD”), rather than the corresponding full-length enzyme
Description: as §1
Some of the particular methods described below use the catalytic domain of the MMP-13 enzyme, namely matrix metalloproteinase-13 catalytic domain (“MMP-13CD”), rather than the corresponding full-length enzyme, MMP-13. It has been shown previously by Ye Qi-Zhuang, Hupe D., and Johnson L. (Current Medicinal Chemistry, 1996;3:407-418) that inhibitor activity against a catalytic domain of an MMP is predictive of the inhibitor activity against the respective full-length MMP enzyme.
as §2, §3

[3] = biological target: MMP-14 catalytic domain (MMP-14CD) (Homo sapiens, UniProt P50281); assay: Inhibition of MMP-14 catalytic domain (thiopeptolide substrate hydrolysis)
Description: as §1, §2, §3
(§4) The test described above for the inhibition of MMP-13 may also be adapted and used to determine the ability of the compounds of Formula I to inhibit the matrix metalloproteases MMP-1, MMP-2, MMP-3, MMP-7, MMP-9, MMP-12 and MMP-14.

[4] = biological target: T3, MMP-12 catalytic domain (MMP-12CD) (Homo sapiens, UniProt P39900); assay: Inhibition of MMP-12 catalytic domain (thiopeptolide substrate hydrolysis)
T3 construct: MMP-3 catalytic domain, MMP-12 catalytic domain, MMP-14 catalytic domain, and MMP-17 catalytic domain
T3 sequence (P39900 106-263 limits assumed, species assumed): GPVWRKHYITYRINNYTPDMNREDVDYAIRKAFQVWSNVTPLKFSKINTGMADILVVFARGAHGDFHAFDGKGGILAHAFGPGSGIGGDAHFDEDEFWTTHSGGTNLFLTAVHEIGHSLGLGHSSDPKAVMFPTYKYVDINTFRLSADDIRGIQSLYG
Description: as §1, §2, §3, §4

[5] = biological target: MMP-3 catalytic domain (MMP-3CD) (Homo sapiens, UniProt P08254); assay: Inhibition of MMP-3 catalytic domain (thiopeptolide substrate hydrolysis, MES pH 6.0)
Chain of MMP-3 catalytic domain (MMP-3CD) (P08254 100-272 limits assumed, species assumed): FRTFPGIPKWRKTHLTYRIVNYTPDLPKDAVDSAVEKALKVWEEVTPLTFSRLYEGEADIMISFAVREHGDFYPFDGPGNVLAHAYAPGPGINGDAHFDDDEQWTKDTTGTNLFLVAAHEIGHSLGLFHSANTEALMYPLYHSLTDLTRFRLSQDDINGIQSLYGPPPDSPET
Description: as §1, §2, §3
It should be appreciated that the assay buffer used with MMP-3CD was 50 mM N-morpholinoethane sulfonate (“MES”) at pH 6.0 rather than the HEPES buffer at pH 7.0 described above.

[6] = Biological Table 2, compounds of Example 66

| Compound | pIC50 [1] | pIC50 ([2]; Biological Table 1) | pIC50 [3] | pIC50 [4] | pIC50 [5] | pIC50 [2, 6] |
| --- | --- | --- | --- | --- | --- | --- |
| COc1cccc(CNC(=O)c2ccc3ccn(Cc4ccc(F)c(F)c4)c(=O)c3c2)c1 [Example 24] | < 4.52 | 7.03 | 7.03 | 4.85 | < 4.52 |  |
| O=C(NCCN1CCOCC1)c1ccc(Cn2ccc3ccc(C#CCc4ccccc4)cc3c2=O)cc1 [Example 21, N-(2-morpholin-4-yl-ethyl)-4-[1-oxo-7-(3-phenylprop-1-ynyl)-1H-isoquinolin-2-ylmethyl]-benzamide] | < 5.52 | 7.17 | < 4.00 | < 4.00 | 4.66 |  |
| O=C1CC(NC(=O)c2ccc(Cn3ccc4ccc(C#CCc5ccccc5)cc4c3=O)cc2)=NN1 [Example 22, N-(5-oxo-4,5-dihydro-1H-pyrazol-3-yl)-4-[1-oxo-7-(3-phenylprop-1-ynyl)-1H-isoquinolin-2-ylmethyl]benzamide] | 4.85 | 7.72 | 4.80 | < 4.00 | 5.39 |  |
| COc1cc(CNC(=O)c2ccc3ccn(Cc4ccc(C(=O)O)cc4)c(=O)c3c2)ccn1 [Example 27, 4-{7-[(2-methoxypyridin-4-ylmethyl)carbamoyl]-1-oxo-1H-isoquinolin-2-ylmethyl}benzoic acid] | 4.13 | 7.44 | < 4.00 | < 4.00 | < 4.00 |  |
| O=C(NCc1ccc(-c2csnn2)cc1)c1ccc2ccn(Cc3ccc(-c4nn[nH]n4)cc3)c(=O)c2c1 [Example 64, 1-oxo-2-[4-(2H-tetrazol-5-yl)benzyl]-1,2-dihydroisoquinoline-7-carboxylic Acid 4-[1,2,3]thiadiazol-4-yl-benzylamide] | < 5.00 | 7.17 |  |  | 4.80 |  |
| COc1ccc(CNC(=O)c2ccc3ccn(Cc4ccc(-c5nn[nH]n5)cc4)c(=O)c3c2)cc1 [Example 58, 1-oxo-2-[4-(2H-tetrazol-5-yl)benzyl]-1,2-dihydroisoquinoline-7-carboxylic Acid 4-methoxy-benzylamide] | 4.96 | 7.77 | < 4.00 | 4.25 | 4.57 |  |
| O=C(NN1CCCCC1)c1ccc(Cn2ccc3ccc(C#CCc4ccccc4)cc3c2=O)cc1 [Example 20, 4-[1-oxo-7-(3-phenylprop-1-ynyl)-1H-isoquinolin-2-ylmethyl]-N-piperidin-1-yl-benzamide] | 5.64 | 7.41 | < 4.52 | < 4.52 | 5.10 |  |
| COc1cc(CNC(=O)c2ccc3ccn(Cc4ccc(-c5nn[nH]n5)cc4)c(=O)c3c2)ccc1O [Example 65, 1-oxo-2-[4-(2H-tetrazol-5-yl)benzyl]-1,2-dihydroisoquinoline-7-carboxylic Acid 4-hydroxy-3-methoxy-benzylamide] | < 4.52 | 7.04 | < 4.00 | < 5.00 | < 4.00 |  |
| COc1cccc(CNC(=O)c2ccc3ccn(Cc4ccc(C#N)cc4)c(=O)c3c2)c1 [Example 37, 2-(4-cyanobenzyl)-1-oxo-1,2-dihydro-isoquinoline-7-carboxylic Acid 3-methoxybenzylamide] |  | 7.02 | < 4.52 | 4.89 | 4.89 |  |
| COc1ccc(CNC(=O)c2ccc3ccn(Cc4ccc(C#N)cc4)c(=O)c3c2)cc1 [Example 36, 2-(4-cyanobenzyl)-1-oxo-1,2-dihydro-isoquinoline-7-carboxylic Acid 4-methoxybenzylamide] |  | 6.62 | < 4.52 | 4.62 | 4.72 |  |
| COc1cc(CNC(=O)c2ccc3ccn(Cc4ccc(C#N)cc4)c(=O)c3c2)ccn1 [Example 35, 2-(4-cyanobenzyl)-1-oxo-1,2-dihydro-isoquinoline-7-carboxylic Acid (2-methoxypyridin-4-ylmethyl)amide] |  | 6.40 | 4.09 | < 5.00 | 5.15 |  |
| CS(=O)(=O)c1ccc(Cn2ccc3ccc(C(=O)NCc4ccncc4)cc3c2=O)cc1 [Example 49, 2-(4-methanesulfonylbenzyl)-1-oxo-1,2-dihydroisoquinoline-7-carboxylic Acid (pyridin-4-ylmethyl)amide] |  | 5.51 |  |  |  |  |
| COc1ccc2nc(Cn3ccc4ccc(C#CCc5ccccc5)cc4c3=O)c(=O)oc2c1 [Example 66u, 7-Methoxy-3-[1-oxo-7-(3-phenyl-prop-1-ynyl)-1H-isoquinolin-2-ylmethyl]-1,4-benzoxazin-2-one] |  |  |  |  |  | 4.96 |
| CSc1ccc(CNC(=O)c2ccc3ccn(Cc4ccc(S(C)(=O)=O)cc4)c(=O)c3c2)cc1 [Example 56, 2-(4-methane-sulfonylbenzyl)-1-oxo-1,2-dihydro-isoquinoline-7-carboxylic Acid 4-methyl-sulfanylbenzylamide] |  | 5.66 |  |  |  |  |
| O=c1c2cc(C#CCc3ccccc3)ccc2ccn1CS(=O)(=O)c1ccccc1 [Example 66ad, 2-Benzenesulfonylmethyl-7-(3-phenyl-prop-1-ynyl)-2H-isoquinolin-1-one] |  |  |  |  |  | 4.70 |
| O=c1c2cc(C#CCc3ccccc3)ccc2ccn1CC(O)CO (stereo not drawn) [Example 66e, 2-(2,3-Dihydroxy-propyl)-7-(3-phenyl-prop-1-ynyl)-2H-isoquinolin-1-one] |  |  |  |  |  | 4.30 |
| CC(C)(CO)Cn1ccc2ccc(C#CCc3ccccc3)cc2c1=O [Example 66y, 2-(3-Hydroxy-2,2-dimethyl-propyl)-7-(3-phenyl-prop-1-ynyl)-2H-isoquinolin-1-one] |  |  |  |  |  | 4.70 |
| CS(=O)(=O)c1ccc(Cn2ccc3ccc(C(=O)NCc4cncnc4)cc3c2=O)cc1 [Example 54, 2-(4-methane-sulfonylbenzyl)-1-oxo-1,2-dihydro-isoquinoline-7-carboxylic Acid (pyrimidin-5-ylmethyl)amide] |  | 4.46 |  |  |  |  |
| O=c1c2cc(C#CCc3ccccc3)ccc2ccn1CCC1OCCO1 [Example 66m, 2-(2-1,3-Dioxolan-2-yl-ethyl)-7-(3-phenyl-prop-1-ynyl)-2H-isoquinolin-1-one] |  |  |  |  |  | 4.62 |
| CC(C)(C)C(=O)Cn1ccc2ccc(C#CCc3ccccc3)cc2c1=O [Example 66ae, 2-(3,3-Dimethyl-2-oxo-butyl)-7-(3-phenyl-prop-1-ynyl)-2H-isoquinolin-1-one] |  |  |  |  |  | 4.72 |
| N#CCCCCCCn1ccc2ccc(C#CCc3ccccc3)cc2c1=O [Example 66aj, 7-[1-Oxo-7-(3-phenyl-prop-1-ynyl)-1H-isoquinolin-2-yl]-heptanenitrile] |  |  |  |  |  | 5.41 |
| CSc1ccc(CNC(=O)c2ccc3ccn(CCOc4ccccc4)c(=O)c3c2)cc1 [Example 48, 1-oxo-2-(2-phenoxyethyl)-1,2-dihydroisoquinoline-7-carboxylic Acid 4-methylsulfanylbenzamide] |  | 5.38 |  |  |  |  |
| CS(=O)(=O)c1ccc(Cn2ccc3ccc(C(=O)NCc4cccnc4)cc3c2=O)cc1 [Example 50, 2-(4-methane-sulfonylbenzyl)-1-oxo-1,2-dihydro-isoquinoline-7-carboxylic Acid (pyridin-3-ylmethyl)amide] |  | 5.13 |  |  |  |  |
| COCCn1ccc2ccc(C#CCc3ccccc3)cc2c1=O [Example 66w, 2-(2-Methoxy-ethyl)-7-(3-phenyl-prop-1-ynyl)-2H-isoquinolin-1-one] |  |  |  |  |  | < 4.52 |
